Data published in patent US20240287042A1, “NOVEL COMPOUND HAVING INHIBITORY ACTIVITY AGAINST PENDRIN, AND PHARMACEUTICAL USES THEREOF” (UIF (University Industry Foundation), Yonsei University, priority 2021, published 2024).

Target: T1, human wild-type (WT)-pendrin (Homo sapiens, UniProt O43511)
T1 construct: expressed in transfected cells
T1 sequence (O43511 1-780): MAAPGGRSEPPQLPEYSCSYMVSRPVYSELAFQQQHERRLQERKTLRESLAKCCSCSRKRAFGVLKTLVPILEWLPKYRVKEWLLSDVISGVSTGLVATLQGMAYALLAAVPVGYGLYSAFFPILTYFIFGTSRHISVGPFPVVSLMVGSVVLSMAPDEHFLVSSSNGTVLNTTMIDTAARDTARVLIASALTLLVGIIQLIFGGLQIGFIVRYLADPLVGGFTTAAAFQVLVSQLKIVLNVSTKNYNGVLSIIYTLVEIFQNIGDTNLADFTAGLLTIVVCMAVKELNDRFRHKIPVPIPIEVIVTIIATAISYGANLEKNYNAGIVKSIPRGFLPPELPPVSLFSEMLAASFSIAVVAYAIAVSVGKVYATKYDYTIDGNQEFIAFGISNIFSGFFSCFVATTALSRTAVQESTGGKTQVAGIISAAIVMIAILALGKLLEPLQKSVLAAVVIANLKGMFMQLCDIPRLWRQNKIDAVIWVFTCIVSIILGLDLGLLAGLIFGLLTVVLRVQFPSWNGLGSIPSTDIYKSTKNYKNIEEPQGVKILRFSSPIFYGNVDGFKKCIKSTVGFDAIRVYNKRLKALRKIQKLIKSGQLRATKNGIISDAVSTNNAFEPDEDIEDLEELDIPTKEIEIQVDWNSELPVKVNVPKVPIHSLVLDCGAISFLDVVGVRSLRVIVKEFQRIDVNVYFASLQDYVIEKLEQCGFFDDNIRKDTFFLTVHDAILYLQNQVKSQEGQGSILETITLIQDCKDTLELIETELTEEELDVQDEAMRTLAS
Assay: Pendrin Cl−/I− exchange inhibitory activity, YFP fluorescence in CHO-K1 cells
Type: cell-based
Conditions: CHO-K1; for inhibition at 1 µM: compound concentration 1 μM; for inhibition at 3 µM: compound concentration 3 μM; for inhibition at 10 µM: compound concentration 10 μM; for inhibition at 30 µM: compound concentration 30 μM; for inhibition at 100 µM: compound concentration 100 μM
Description: Chinese hamster ovary (CHO)-K1 cells were cultured in DMEM medium containing 10% fetal bovine serum (FBS), 100 units/ml of penicillin and 100 μg/ml streptomycin. CHO-K1 cells were stably transfected with pcDNA3.1 encoding the halide sensor YFP-H148Q/I152L/F46L and human wild-type (WT)-pendrin.
(§1) CHO-K1 cells expressing human WT pendrin and YFP-F46L/H148Q/I152L were plated in 96-well microplates at a density of 2×10^4 cells per well, and cultured for 48 hours. Each well of the cell cultured 96-well plate was washed 2 times with 200 μL of PBS, and filled with 50 μL of HEPES buffered solution (140 mM NaCl, 5 mM KCl, 1 mM MgCl2, 1 mM CaCl2), 10 mM glucose and 10 mM HEPES (pH 7.4)). Test compounds (1 μL) were added to a final concentration of 1, 3, 10, 30 and 100 μM. After culturing at 37° C. for 10 minutes, the 96-well plate was located on the FLUOstar Omega Microplate Reader (BMG Labtech, Ortenberg, Germany) for a fluorescence assay. Fluorescence was recorded continuously (400 ms per point) for 1 second (baseline), whereby each well was assayed individually for pendrin-mediated I-influx. Then 50 μL of Na-substituted HEPES buffered solution (replacing NaCl with NaI) was added using a liquid injector at 1 second, and YFP fluorescence was recorded for 5 seconds. The initial iodide influx rate was determined from the initial slope of fluorescence by nonlinear regression, after the injection of iodide.
as §1, with “Chinese hamster ovary (CHO)-K1 cells were cultured in DMEM medium containing 10% fetal bovine serum (FBS), 100 units/ml of penicillin and 100 μg/ml streptomycin. CHO-K1 cells were stably transfected with pcDNA3.1 encoding the halide sensor YFP-H148Q/I152L/F46L and human wild-type (WT)-pendrin. 3-2: Assay of Cl^−/I^− exchange activity CHO-K1” for “CHO-K1”, “50” for “1, 3, 10, 30 and 100”, “Then,” for “Then”, “NaI-substituted” for “Na-substituted”

| Structure (SMILES) | inhibition at 1 µM | inhibition at 3 µM | inhibition at 10 µM | inhibition at 30 µM | inhibition at 100 µM |
| --- | --- | --- | --- | --- | --- |
| Cc1cccc(Cl)c1N1CCN(C(=O)Cc2c(C(=O)O)[nH]c3ccc(Cl)cc23)CC1 [YPI-A4880, 5-Chloro-3-(2-(4-(2-chloro-6-methylphenyl)piperazin-1-yl)-2-oxoethyl)-1H-indole-2-carboxylic acid] | 42.8% | 75.2% | 97.6% | 98.1% | 98.4% |
| O=C(O)c1[nH]c2ccc(Cl)cc2c1CC(=O)N1CCN(c2ccccc2)CC1 [YPI-A4881, 5-Chloro-3-(2-oxo-2-(4-phenylpiperazin-1-yl)ethyl)-1H-indole-2-carboxylic acid] | < 20% | < 20% | < 20% | < 20% | 40.2% |
| CCOc1ccccc1N1CCN(C(=O)Cc2c(C(=O)O)[nH]c3ccc(Cl)cc23)CC1 [YPI-A4882, 5-Chloro-3-(2-(4-(2-ethoxyphenyl)piperazin-1-yl)-2-oxoethyl)-1H-indole-2-carboxylic acid] | < 20% | < 20% | < 20% | < 20% | 45.3% |
| CC1CN(C(=O)Cc2c(C(=O)O)[nH]c3ccc(Cl)cc23)CCN1c1ccccc1 (stereo not drawn) [YPI-A4883, 5-Chloro-3-(2-(3-methyl-4-phenylpiperazin-1-yl)-2-oxoethyl)-1H-indole-2-carboxylic acid] | < 20% | < 20% | < 20% | < 20% | < 20% |
| CC1(C)CN(c2ccc(Cl)cc2)CCN1C(=O)Cc1c(C(=O)O)[nH]c2ccc(Cl)cc12 [YPI-A4884, 5-Chloro-3-(2-(4-(4-chlorophenyl)-2,2-dimethylpiperazin-1-yl)-2-oxoethyl)-1H-indole-2-carboxylic acid] | < 20% | < 20% | < 20% | < 20% |  |
| O=C(O)c1[nH]c2ccc(Cl)cc2c1CC(=O)N1CCN(c2ccc(F)cc2Cl)CC1 [YPI-A4885, 5-Chloro-3-(2-(4-(2-chloro-4-fluorophenyl)piperazin-1-yl)-2-oxoethyl)-1H-indole-2-carboxylic acid] | < 20% | < 20% | 69.1% | 83.7% | 84.2% |
| COc1ccc(Cl)c(N2CCN(C(=O)Cc3c(C(=O)O)[nH]c4ccc(Cl)cc34)CC2)c1 [YPI-A4886, 5-Chloro-3-(2-(4-(2-chloro-5-methoxyphenyl)piperazin-1-yl)-2-oxoethyl)-1H-indole-2-carboxylic acid] | < 20% | < 20% | 33.7% | 66.2% | 79.9% |
| O=C(O)c1[nH]c2ccc(Cl)cc2c1CC(=O)N1CCN(c2ccc(Cl)cc2Cl)CC1 [YPI-A4887, 5-Chloro-3-(2-(4-(2,4-dichlorophenyl)piperazin-1-yl)-2-oxoethyl)-1H-indole-2-carboxylic acid] | < 20% | 50.8% | 89.3% | 89.5% | 89.9% |
| C[C@@H]1CN(c2ccccc2)CCN1C(=O)Cc1c(C(=O)O)[nH]c2ccc(Cl)cc12 [YPI-A4914, (R)-5-chloro-3-(2-(2-methyl-4-phenylpiperazin-1-yl)-2-oxoethyl)-1H-indole-2-carboxylic acid] | < 20% | < 20% | < 20% | < 20% | 68.2% |
| O=C(O)c1[nH]c2ccc(Cl)cc2c1CC(=O)N1CCN(c2ccc(F)cc2F)CC1 [YPI-A4915, 5-Chloro-3-(2-(4-(2,4-difluorophenyl)piperazin-1-yl)-2-oxoethyl)-1H-indole-2-carboxylic acid] | < 20% | < 20% | < 20% | 65.2% | 93.3% |
| O=C(O)c1[nH]c2ccc(Cl)cc2c1CC(=O)N1CCN(c2cc(Cl)c(Cl)c(Cl)c2)CC1 [YPI-A4916, 5-Chloro-3-(2-oxo-2-(4-(3,4,5-trichlorophenyl)piperazin-1-yl)ethyl)-1H-indole-2-carboxylic acid] | < 20% | 45.7% | 82.6% | 90.9% | 91.4% |
| O=C(O)c1[nH]c2ccc(Cl)cc2c1CC(=O)N1CCN(c2ccccc2F)CC1 [YPI-A4917, 5-Chloro-3-(2-(4-(2-fluorophenyl)piperazin-1-yl)-2-oxoethyl)-1H-indole-2-carboxylic acid] | < 20% | < 20% | < 20% | < 20% | 78.3% |
| Cc1c(Cl)cccc1N1CCN(C(=O)Cc2c(C(=O)O)[nH]c3ccc(Cl)cc23)CC1 [YPI-A4918, 5-Chloro-3-(2-(4-(3-chloro-2-methylphenyl)piperazin-1-yl)-2-oxoethyl)-1H-indole-2-carboxylic acid] | < 20% | 34.7% | 87.5% | 94.8% | 95.6% |
| O=C(O)c1ccc(N2CCN(C(=O)Cc3c(C(=O)O)[nH]c4ccc(Cl)cc34)CC2)cc1 [YPI-A4919, 3-(2-(4-(4-Carboxyphenyl)piperazin-1-yl)-2-oxoethyl)-5-chloro-1H-indole-2-carboxylic acid] | < 20% | < 20% | < 20% | < 20% | < 20% |
| CC(=O)c1ccc(N2CCN(C(=O)Cc3c(C(=O)O)[nH]c4ccc(Cl)cc34)CC2)cc1 [YPI-A4920, 3-(2-(4-(4-Acetylphenyl)piperazin-1-yl)-2-oxoethyl)-5-chloro-1H-indole-2-carboxylic acid] | < 20% | < 20% | < 20% | < 20% | < 20% |
| CCOc1ccc(N2CCN(C(=O)Cc3c(C(=O)O)[nH]c4ccc(Cl)cc34)CC2)cc1 [YPI-A4921, 5-Chloro-3-(2-(4-(4-ethoxyphenyl)piperazin-1-yl)-2-oxoethyl)-1H-indole-2-carboxylic acid] | < 20% | < 20% | < 20% | 72.5% | 73.8% |
| CC(C)(C)c1ccc(N2CCN(C(=O)Cc3c(C(=O)O)[nH]c4ccc(Cl)cc34)CC2)cc1 [YPI-A4943, 3-(2-(4-(4-(Tert-butyl)phenyl)piperazin-1-yl)-2-oxoethyl)-5-chloro-1H-indole-2-carboxylic acid] | < 20% | 34.1% | 70.8% | 81.9% | 91.5% |
